In PMC6180429 (Organic & Biomolecular Chemistry, 2018):

Columns and labels:
[1] = target: T1, PPARγ (peroxisome proliferator-activated receptor γ) (Homo sapiens, UniProt P37231); experiment: Gal4-PPARγ-LBD one-hybrid luciferase reporter assay in HEK293 cells (partial agonist); assay type: cell-based
T1 construct: gene PPARG
T1 sequence (P37231 232-505 limits assumed): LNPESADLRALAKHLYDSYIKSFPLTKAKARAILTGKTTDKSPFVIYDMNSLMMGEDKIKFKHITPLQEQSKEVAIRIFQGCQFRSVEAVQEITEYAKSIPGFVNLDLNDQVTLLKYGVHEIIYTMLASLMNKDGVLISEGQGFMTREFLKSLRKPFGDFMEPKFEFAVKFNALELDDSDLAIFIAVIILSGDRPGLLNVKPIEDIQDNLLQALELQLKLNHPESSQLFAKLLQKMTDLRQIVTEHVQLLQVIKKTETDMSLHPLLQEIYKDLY

[2] = target: T1, PPARγ (peroxisome proliferator-activated receptor γ); experiment: Gal4-PPARγ reporter assay in HEK293 cells, antagonism of […] pioglitazone; assay type: cell-based

Row | Structure (SMILES) | EC50 [1] [nM] | Gal4-PPARγ reporter assay in HEK293 cells, antagonism of 10 μM pioglitazone [2]
1 | C=CCc1ccc(O)c(-c2cc(CC=C)c(CCC/C=C\Cc3ccc(O)cc3)cc2O)c1 [III, Sesqui magnolol A] | 1070 | 
2 | C=CCc1ccc(O)cc1CCC/C=C\Cc1ccc(O)cc1 [V, Truncated magnolol dimer] |  | V showed a dose-dependent inhibition of the pioglitazone induced PPARγ-Gal4 activation.
3 | C=CCc1ccc(O)c(-c2cc(C/C=C\CCCc3cc(O)ccc3CC=C)ccc2O)c1 [IV, Sesqui magnolol B] | 770 | 
